Assay results: patent publication US12331026B2 (NiKang Therapeutics, Inc., priority 2022, dated 2025)

Molecular target: T1, CDK2 (Homo sapiens, UniProt P24941)
T1 construct: endogenous in cells; host or cells: OVCAR3 cells
Assay: Phospho-RB measurement in OVCAR3 cells (HTRF phospho-RB S807/811)
Assay type: cell-based
Conditions: phosphorylation of RB protein at S807/811, HTRF, 24 h compound treatment, 0.3 to 10,000 nM, read-out: pRb (uM)
Description: The ability of compounds of Formula (I) to inhibit CDK2 was determined in OVCAR3 cells. Phosphorylation of RB protein at S807/811 were measured using HTRF phospho-RB cellular kits (Cat #64RBS807PEG) from Cisbio.
On Day 1, OVCAR3 cells were seeded into 96-well tissue-culture treated plates at 20,000 cells/well in 200 μL and incubated overnight at 37° C. in CO2 atmosphere. On Day 2, the cells were treated with test compounds at concentrations from 0.3 to 10,000 nM using HP D300 digital dispenser. Twenty-four hours after compound treatment, cell culture media was removed by flicking the plate and tapping the plate against clean paper towel. Immediately 30 μL 1× lysis buffer was supplemented from the kit and the plate was incubated at room temperature on shaker for 30 min. After homogenization by pipetting up and down, 8 μL cell lysate from 96-well cell culture plate was transferred to 384-well small volume white detection plate. 2 μL premixed detection solution was added and the plate was covered with sealer. To prepare the detection solution, d2 conjugated-phospho-RB antibody and Eu-cryptate conjugated phosphor-RB antibody were diluted into detection buffer following manufacturer's instruction.
Detection plates were incubated for 4 h at room temperature and read on ClarioStar (BMG Labtech) in TR-FRET mode ([…]). The TR-FRET ratio (665 nM1/620 nM) was plotted against the compound concentration and normalized to DMSO controls. Half maximal inhibition concentration (IC50) values are calculated with a four-parameter logistic fit using GraphPad Prism (version 8; La Jolla, CA).

| Structure (SMILES) | IC50 [µM] |
| --- | --- |
| CC1(C)CCCN1c1nc(-c2cccc(NS(=O)(=O)c3c(F)cccc3F)c2F)c(-c2ccnc(NC3CC4(C3)CS(=O)(=O)C4)n2)s1 [Example 24, N-(3-(2-(2,2-dimethylpyrrolidin-1-yl)-5-(2-((2,2-dioxido-2-thiaspiro[3.3]heptan-6-yl)amino)pyrimidin-4-yl)thiazol-4-yl)-2-fluorophenyl)-2,6-difluorobenzenesulfonamide] | 1.46 |
| CS(=O)(=O)C1CCC(Nc2nccc(-c3sc(C45CC(F)(C4)C5)nc3-c3cccc(NS(=O)(=O)c4c(F)cccc4C(F)(F)F)c3F)n2)CC1 (centres unmarked) [Example 27, 2-fluoro-N-(2-fluoro-3-(2-(3-fluorobicyclo[1.1.1]pentan-1-yl)-5-(2-(((1s,4s)-4-(methylsulfonyl)cyclohexyl)amino)pyrimidin-4-yl)thiazol-4-yl)phenyl)-6-(trifluoromethyl)benzenesulfonamide] | 0.066 |
| CN1CC2CCC1CN2c1nc(-c2cccc(NS(=O)(=O)c3c(F)cccc3F)c2F)c(-c2ccnc(NC3CC4(C3)CS(=O)(=O)C4)n2)s1 (centres unmarked) [Example 28, N-(3-(5-(2-((2,2-dioxido-2-thiaspiro[3.3]heptan-6-yl)amino)pyrimidin-4-yl)-2-(5-methyl-2,5-diazabicyclo[2.2.2]octan-2-yl)thiazol-4-yl)-2-fluorophenyl)-2,6-difluorobenzenesulfonamide] | 1.17 |
| O=S1(=O)CC2(CC(Nc3nccc(-c4sc(C56CC(C5)C6)nc4-c4cccc(NS(=O)(=O)c5c(Cl)cccc5Cl)c4F)n3)C2)C1 [Example 31, N-(3-(2-(bicyclo[1.1.1]pentan-1-yl)-5-(2-((2,2-dioxido-2-thiaspiro[3.3]heptan-6-yl)amino)pyrimidin-4-yl)thiazol-4-yl)-2-fluorophenyl)-2,6-dichlorobenzenesulfonamide] | 0.07 |
| O=S1(=O)CC2(CC(Nc3nccc(-c4sc(C56CCC(CC5)C6)nc4-c4cccc(NS(=O)(=O)c5c(F)cccc5F)c4F)n3)C2)C1 [Example 32, N-(3-(2-(bicyclo[2.2.1]heptan-1-yl)-5-(2-((2,2-dioxido-2-thiaspiro[3.3]heptan-6-yl)amino)pyrimidin-4-yl)thiazol-4-yl)-2-fluorophenyl)-2,6-difluorobenzenesulfonamide] | 0.08 |
| CC1(C#N)CC2CCC(C1)N2c1nc(-c2cccc(NS(=O)(=O)c3c(F)cccc3F)c2F)c(-c2ccnc(NC3CC4(C3)CS(=O)(=O)C4)n2)s1 (centres unmarked) [Example 33, N-(3-(2-(3-cyano-3-methyl-8-azabicyclo[3.2.1]octan-8-yl)-5-(2-((2,2-dioxido-2-thiaspiro[3.3]heptan-6-yl)amino)pyrimidin-4-yl)thiazol-4-yl)-2-fluorophenyl)-2,6-difluorobenzenesulfonamide] | 0.1 |
| O=S1(=O)CC2(CC(Nc3nccc(-c4sc(N5CC6CCC(C5)N6c5ccccn5)nc4-c4cccc(NS(=O)(=O)c5c(F)cccc5F)c4F)n3)C2)C1 [Example 37, N-(3-(5-(2-((2,2-dioxido-2-thiaspiro[3.3]heptan-6-yl)amino)-pyrimidin-4-yl)-2-(8-(pyridin-2-yl)-3,8-diazabicyclo[3.2.1]octan-3-yl)thiazol-4-yl)-2-fluorophenyl)-2,6-difluorobenzenesulfonamide] | 0.42 |
| O=S1(=O)CCC(N2CC3CCC(C2)N3c2nc(-c3cccc(NS(=O)(=O)c4c(F)cccc4F)c3F)c(-c3ccnc(NC4CC5(C4)CS(=O)(=O)C5)n3)s2)CC1 [Example 38, N-(3-(5-(2-((2,2-dioxido-2-thiaspiro[3.3]heptan-6-yl)amino)-pyrimidin-4-yl)-2-(3-(1,1-dioxidotetrahydro-2H-thiopyran-4-yl)-3,8-diazabicyclo[3.2.1]octan-8-yl)thiazol-4-yl)-2-fluorophenyl)-2,6-difluorobenzenesulfonamide] | 8.12 |
| O=S1(=O)CC2(CC(Nc3nccc(-c4sc(C56CC(C(F)(F)F)(C5)C6)nc4-c4cccc(NS(=O)(=O)c5c(F)cccc5F)c4F)n3)C2)C1 [Example 39, N-(3-(5-(2-((2,2-dioxido-2-thiaspiro[3.3]heptan-6-yl)amino)-pyrimidin-4-yl)-2-(3-(trifluoromethyl)bicyclo[1.1.1]pentan-1-yl)thiazol-4-yl)-2-fluorophenyl)-2,6-difluorobenzenesulfonamide] | 0.35 |
| O=S1(=O)CC2(CC(Nc3nccc(-c4sc(C56CC(C5)C6)nc4-c4cccc(NS(=O)(=O)c5c(F)cccc5C5CC5)c4F)n3)C2)C1 [Example 41, N-(3-(2-(bicyclo[1.1.1]pentan-1-yl)-5-(2-((2,2-dioxido-2-thiaspiro[3.3]heptan-6-yl)amino)pyrimidin-4-yl)thiazol-4-yl)-2-fluorophenyl)-2-cyclopropyl-6-fluorobenzenesulfonamide] | 0.36 |

Further compounds by falling IC50, results first:

| IC50 [µM] | Structure (SMILES) |
| --- | --- |
| 2.01 | O=S1(=O)CC2(CC(Nc3nccc(-c4sc(C56CC(CO)(C5)C6)nc4-c4cccc(NS(=O)(=O)c5c(F)cccc5F)c4F)n3)C2)C1 [Example 34, N-(3-(5-(2-((2,2-dioxido-2-thiaspiro[3.3]heptan-6-yl)amino)pyrimidin-4-yl)-2-(3-(hydroxymethyl)bicyclo[1.1.1]pentan-1-yl)thiazol-4-yl)-2-fluorophenyl)-2,6-difluorobenzenesulfonamide] |
| 1.74 | CN1C2CCC1CN(c1nc(-c3cccc(NS(=O)(=O)c4c(F)cccc4F)c3F)c(-c3ccnc(NC4CC5(C4)CS(=O)(=O)C5)n3)s1)C2 [Example 23, N-(3-(5-(2-((2,2-dioxido-2-thiaspiro[3.3]heptan-6-yl)amino)pyrimidin-4-yl)-2-(8-methyl-3,8-diazabicyclo[3.2.1]octan-3-yl)thiazol-4-yl)-2-fluorophenyl)-2,6-difluorobenzenesulfonamide] |
| 1.7 | O=S1(=O)CC2(CC(Nc3nccc(-c4sc(N5C6CCC5CN(Cc5ccccc5)C6)nc4-c4cccc(NS(=O)(=O)c5c(F)cccc5F)c4F)n3)C2)C1 [Example 40, N-(3-(2-(3-benzyl-3,8-diazabicyclo[3.2.1]octan-8-yl)-5-(2-((2,2-dioxido-2-thiaspiro[3.3]heptan-6-yl)amino)pyrimidin-4-yl)thiazol-4-yl)-2-fluorophenyl)-2,6-difluorobenzenesulfonamide] |
| 1.55 | CN(C)C1CC2CCC(C1)N2c1nc(-c2cccc(NS(=O)(=O)c3c(F)cccc3F)c2F)c(-c2ccnc(NC3CC4(C3)CS(=O)(=O)C4)n2)s1 (centres unmarked) [Example 25, N-(3-(2-(3-(dimethylamino)-8-azabicyclo[3.2.1]octan-8-yl)-5-(2-((2,2-dioxido-2-thiaspiro[3.3]heptan-6-yl)amino)pyrimidin-4-yl)thiazol-4-yl)-2-fluorophenyl)-2,6-difluorobenzenesulfonamide] |
| 0.46 | O=S1(=O)CC2(CC(Nc3nccc(-c4sc(N5C6CCC5CN(c5ccccn5)C6)nc4-c4cccc(NS(=O)(=O)c5c(F)cccc5F)c4F)n3)C2)C1 [Example 43, N-(3-(5-(2-((2,2-dioxido-2-thiaspiro[3.3]heptan-6-yl)amino)-pyrimidin-4-yl)-2-(3-(pyridin-2-yl)-3,8-diazabicyclo[3.2.1]octan-8-yl)thiazol-4-yl)-2-fluorophenyl)-2,6-difluorobenzenesulfonamide] |
| 0.44 | CN1CC2CC(C1)N2c1nc(-c2cccc(NS(=O)(=O)c3c(F)cccc3F)c2F)c(-c2ccnc(NC3CC4(C3)CS(=O)(=O)C4)n2)s1 [Example 22, N-(3-(5-(2-((2,2-dioxido-2-thiaspiro[3.3]heptan-6-yl)amino)pyrimidin-4-yl)-2-(3-methyl-3,6-diazabicyclo[3.1.1]heptan-6-yl)thiazol-4-yl)-2-fluorophenyl)-2,6-difluorobenzenesulfonamide] |
| 0.29 | CS(=O)(=O)[C@H]1CC[C@H](Nc2nccc(-c3sc(C45CC(C(F)(F)F)(C4)C5)nc3-c3cccc(NS(=O)(=O)c4c(F)cccc4C(F)(F)F)c3F)n2)CC1 [Example 35, 2-fluoro-N-(2-fluoro-3-(5-(2-(((1r,4r)-4-(methylsulfonyl)-cyclohexyl)amino)pyrimidin-4-yl)-2-(3-(trifluoromethyl)-bicyclo[1.1.1]pentan-1-yl)thiazol-4-yl)phenyl)-6-(trifluoromethyl)-benzenesulfonamide] |
| 0.27 | CC1(C)CCN1c1nc(-c2cccc(NS(=O)(=O)c3c(F)cccc3F)c2F)c(-c2ccnc(NC3CC4(C3)CS(=O)(=O)C4)n2)s1 [Example 29, N-(3-(2-(2,2-dimethylazetidin-1-yl)-5-(2-((2,2-dioxido-2-thiaspiro[3.3]heptan-6-yl)amino)pyrimidin-4-yl)thiazol-4-yl)-2-fluorophenyl)-2,6-difluorobenzenesulfonamide] |
| 0.09 | CS(=O)(=O)[C@H]1CC[C@H](Nc2nccc(-c3sc(C45CC(C4)C5)nc3-c3cccc(NS(=O)(=O)c4c(F)cccc4C(F)(F)F)c3F)n2)CC1 [Example 36] |
| 0.016 | O=S1(=O)CC2(CC(Nc3nccc(-c4sc(C56CC(C5)C6)nc4-c4cccc(NS(=O)(=O)c5c(F)cccc5C(F)(F)F)c4F)n3)C2)C1 [Example 26, N-(3-(2-(bicyclo[1.1.1]pentan-1-yl)-5-(2-((2,2-dioxido-2-thiaspiro[3.3]heptan-6-yl)amino)pyrimidin-4-yl)thiazol-4-yl)-2-fluorophenyl)-2-fluoro-6-(trifluoromethyl)benzenesulfonamide] |
